Experimental data: patent US20050112573A1, “Method of detecting toxic substance” (priority 2001, published 2005)

Test system: yeast genes (level of expressed mRNA)
Assay: DNA chip analysis of expressed mRNA of yeast genes after 2 h culture with a toxic chemical substance
Format: cell-based, Saccharomyces cerevisiae S288C
Protocol: Yeast (Saccharomyces cerevtisiae S288C (α SUC2mal mel gap2 CUP1)) were cultured at 25° C. on YPD medium (yeast extract 1%, polypepton 2%, glucose 2%). One of toxic chemical substances was added to the cell at logarithmic growth phase, and the cell was further cultured for two hours. Cell was cultured without any chemical substance in the same condition, and was used as control. Concentrations of the chemical substances were defined to inhibit the growth of the yeast but not lead to death.
After the completion of cultivation, the culture was centrifuged to collect the cells. To the cells, sodium acetate buffer (50 mM sodium acetate, 10 mM EDTA, 1% SDS) was added, and the mixture was shaken at 65° C. for five minutes, followed by returning to room temperature, and obtaining the supernatant, which procedure was repeated two times. To the supernatant, ½ amount of a solution of phenol/chloroform was added, and the mixture was centrifuged to give a supernatant, which was added with an equal amount of chloroform, and the mixture was centrifuged to give a supernatant. To the supernatant, an equal amount of isopropanol containing 0.3 M sodium acetate was added, and the mixture was allowed to stand at room temperature for 30 minutes, after which the mixture was centrifuged to give a sediment of the whole RNAs. Seventy % ethanol was added to the sediment, and the mixture was again centrifuged to give a sediment, which was then dried and dissolved in water. mRNA was isolated from the whole RNAs as followings. In view of the fact that a poly A chain is attached to the 3′ terminus of mRNA, a polynucleotide having a poly T structure which was immobilized on the surface of latex beads was used to trap the mRNA, and then the mRNA was washed and eluted with spine column (Oligotex-dT30<Super>mRNA Purification Kit, Takara). Reverse transcription of the mRNA was conducted with a reverse transcriptase (Super Script II Reverse Transcriptase; catalogue No. 18064-014, GibcoBRL) using fluorescence-labeled nucleotides to give cDNAs that were introduced with Cy3-dUTP or Cy5-dUTP during the reverse transcription.
The labeled cDNAs were dissolved in TE buffer (10 mM Tris-HCl/1 mM EDTA, pH8.0), and the solution was dropped on the DNA chip containing the whole genes of yeast (DNA Chip Research Inc. Japan) so that the cDNAs were hybridized on the DNA chip at 65° C. for over 12 hours. The fluoresces intensity of the DNA chip was read with a scanner, and the ratio relative to the fluorescence intensity resulting from the absence of chemical substance was estimated as the following, which is shown in Tables 1 to 9: [formula]
In the Tables, “Intensity” indicated in the rightmost column is a value of the level of expressed mRNA of each gene in control cells as divided by the average level of the expressions of the whole genes.

S=C([S-])NCCNC(=S)[S-].[Zn+2] [(11), zinc N,N′-ethylenebis(dithiocarbamate)]
level of expressed mRNA in the presence of chemical substance/in its absence (gene YAL012W): 4.0
The level of expressed mRNA in the presence of chemical substance/absence: YAL014C (gene YAL014C): 1.7
The level of expressed mRNA in the presence of chemical substance/absence: YAL017W (gene YAL017W): 0.7
The level of expressed mRNA in the presence of chemical substance/absence: YAL018C (gene YAL018C): 0.1
level of expressed mRNA in the presence of chemical substance/in its absence (gene YAL038W): 1.0
level of expressed mRNA in the presence of chemical substance/in its absence (gene YAL044C): 1.4
The level of expressed mRNA in the presence of chemical substance/absence: YAL049C (gene YAL049C): 1.0
level of expressed mRNA in the presence of chemical substance/in its absence (gene YAL054C): 1.3
The level of expressed mRNA in the presence of chemical substance/absence: YAR047C (gene YAR047C): 1.1
The level of expressed mRNA in the presence of chemical substance/absence: YAR064W (gene YAR064W): 0.7
level of expressed mRNA in the presence of chemical substance/in its absence (gene YAR071W): 1.1
level of expressed mRNA in the presence of chemical substance/in its absence (gene YBL001C): 2.3
The level of expressed mRNA in the presence of chemical substance/absence: YBL044W (gene YBL044W): 0.6
The level of expressed mRNA in the presence of chemical substance/absence: YBL100C (gene YBL100C): 0.9
The level of expressed mRNA in the presence of chemical substance/absence: YBR012C (gene YBR012C): 0.7
The level of expressed mRNA in the presence of chemical substance/absence: YBR013C (gene YBR013C): 1.2
level of expressed mRNA in the presence of chemical substance/in its absence (gene YBR014C): 1.8
level of expressed mRNA in the presence of chemical substance/in its absence (gene YBR023C): 0.9
level of expressed mRNA in the presence of chemical substance/in its absence (gene YBR029C): 0.7
level of expressed mRNA in the presence of chemical substance/in its absence (gene YBR035C): 2.0
level of expressed mRNA in the presence of chemical substance/in its absence (gene YBR050C): 1.1
The level of expressed mRNA in the presence of chemical substance/absence: YBR051W (gene YBR051W): 0.1
The level of expressed mRNA in the presence of chemical substance/absence: YBR063C (gene YBR063C): 0.6
The level of expressed mRNA in the presence of chemical substance/absence: YBR066C (gene YBR066C): 1.2
level of expressed mRNA in the presence of chemical substance/in its absence (gene YBR068C): 0.8
level of expressed mRNA in the presence of chemical substance/in its absence (gene YBR111C): 1.5
The level of expressed mRNA in the presence of chemical substance/absence: YBR124W (gene YBR124W): 0.4
The level of expressed mRNA in the presence of chemical substance/absence: YBR129C (gene YBR129C): 1.4
level of expressed mRNA in the presence of chemical substance/in its absence (gene YBR145W): 1.1
The level of expressed mRNA in the presence of chemical substance/absence: YBR162C (gene YBR162C): 0.8
level of expressed mRNA in the presence of chemical substance/in its absence (gene YBR183W): 1.9
level of expressed mRNA in the presence of chemical substance/in its absence (gene YBR222C): 1.3
The level of expressed mRNA in the presence of chemical substance/absence: YBR255W (gene YBR255W): 1.5
The level of expressed mRNA in the presence of chemical substance/absence: YBR281C (gene YBR281C): 1.4
The level of expressed mRNA in the presence of chemical substance/absence: YBR287W (gene YBR287W): 2.0
level of expressed mRNA in the presence of chemical substance/in its absence (gene YBR299W): 2.4
level of expressed mRNA in the presence of chemical substance/in its absence (gene YCL009C): 1.5
The level of expressed mRNA in the presence of chemical substance/absence: YCL042W (gene YCL042W): 3.2
The level of expressed mRNA in the presence of chemical substance/absence: YCL044C (gene YCL044C): 1.1
The level of expressed mRNA in the presence of chemical substance/absence: YCL056C (gene YCL056C): 1.5
level of expressed mRNA in the presence of chemical substance/in its absence (gene YCL064C): 1.8
The level of expressed mRNA in the presence of chemical substance/absence: YCR007C (gene YCR007C): 1.1
level of expressed mRNA in the presence of chemical substance/in its absence (gene YCR037C): 0.8
level of expressed mRNA in the presence of chemical substance/in its absence (gene YCR048W): 1.2
level of expressed mRNA in the presence of chemical substance/in its absence (gene YCR098C): 1.3
level of expressed mRNA in the presence of chemical substance/in its absence (gene YDL022W): 2.8
The level of expressed mRNA in the presence of chemical substance/absence: YDL046W (gene YDL046W): 2.6
The level of expressed mRNA in the presence of chemical substance/absence: YDL089W (gene YDL089W): 2.0
The level of expressed mRNA in the presence of chemical substance/absence: YDL173W (gene YDL173W): 1.2
The level of expressed mRNA in the presence of chemical substance/absence: YDL193W (gene YDL193W): 1.1
The level of expressed mRNA in the presence of chemical substance/absence: YDL233W (gene YDL233W): 0.7
level of expressed mRNA in the presence of chemical substance/in its absence (gene YDR009W): 0.1
level of expressed mRNA in the presence of chemical substance/in its absence (gene YDR019C): 1.8
The level of expressed mRNA in the presence of chemical substance/absence: YDR071C (gene YDR071C): 1.4
The level of expressed mRNA in the presence of chemical substance/absence: YDR078C (gene YDR078C): 1.1
The level of expressed mRNA in the presence of chemical substance/absence: YDR090C (gene YDR090C): 0.7
The level of expressed mRNA in the presence of chemical substance/absence: YDR109C (gene YDR109C): 0.9
